Results: ChEMBL document CHEMBL1125936, “Synthesis and biological evaluation of 4-purinylpyrrolidine nucleosides” (J Med Chem, 1991)
Each block holds one compound with its values, some of them ahead of it.

Tests used:
[1] = target: Adenosine deaminase (Bos taurus) (UniProt P56658); experiment: Binding affinity towards adenosine deaminase
Tumor Cell line = experiment: The compound was tested for inhibitory activity against panel of human tumor cell lines; Range = 0.08-14.02 uM; assay type: functional, cell-based
[2] = system: Human immunodeficiency virus; experiment: The compound was tested for anti-HIV activity; Range = 5.0-15.0 uM; assay type: functional; conditions: Human immunodeficiency virus 1; read-out: ED50 (the source's name)

Sequence of Adenosine deaminase (Bos taurus) (P56658 whole entry, looked up): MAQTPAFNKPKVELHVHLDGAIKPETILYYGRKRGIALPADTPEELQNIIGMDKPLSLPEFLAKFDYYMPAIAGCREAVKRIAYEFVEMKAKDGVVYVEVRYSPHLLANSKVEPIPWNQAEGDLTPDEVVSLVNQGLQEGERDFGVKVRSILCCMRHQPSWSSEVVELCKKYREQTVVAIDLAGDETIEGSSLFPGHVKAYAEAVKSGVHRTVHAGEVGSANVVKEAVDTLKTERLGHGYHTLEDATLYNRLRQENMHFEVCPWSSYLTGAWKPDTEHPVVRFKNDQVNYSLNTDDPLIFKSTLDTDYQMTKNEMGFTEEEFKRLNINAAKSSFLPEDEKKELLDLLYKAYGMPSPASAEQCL

- Ki [1]: 85 µM
SMILES: Nc1ncnc2c1ncn2[C@H]1CN[C@@H](CO)C1

- IC50 (Tumor Cell line): 0.08 µM
SMILES: Cc1cn([C@@H]2C[C@H](CO)N(O)C2)c(=O)[nH]c1=O

- EC50 [2]: 5 µM
SMILES: Nc1ncnc2c1ncn2[C@H]1CO[C@@H](CO)C1
